Measured values: patent publication US20260240926A1, “METHOD OF MAKING A PROBIOTIC FERMENTED PRODUCT” (UNIVERSITY OF SOUTH FLORIDA, priority 2023, published 2026)

System: C57BL/6 mice
Experiment: Chemotherapy (5-FU) induced dysbiosis model in C57BL/6 mice
Type: in vivo
Conditions: 5-FU alone
Protocol: Based on previous studies, a model of chemotherapy induced dysbiosis in C57BL/6 mice using 5-Fluorouracil (5-FU) chemotherapy was established. 5-FU accelerated body weight loss (FIG. 16A), reduced microbiome diversity (FIG. 16B), increased gut permeability (FIG. 16C), damaged intestinal villi in the ileum (FIG. 16D), and impaired cognitive function (FIG. 16E). […] It was determined where the PFM has more significant protective effects compared to non-fermented probiotics (same four strains suspended in saline, instead of fermented in milk).

cognitive function: impaired | microbiome diversity: reduced
SMILES: O=c1[nH]cc(F)c(=O)[nH]1 [5-FU, 5-Fluorouracil]
body weight loss: accelerated | intestinal villi in the ileum: damaged
